Several values for one entry are separate records, joined by “and”; a condition that tells them apart may be missing. Equal values may be shown once. Inconclusive results and toxic doses are left out.
Tested on: L1210 leukemia ip in BDF1 mice, survival T/C
Assay: NCI In Vivo Anticancer Drug Screen. Data for tumor model L1210 Leukemia (intraperitoneal) in B6D2F1 (BDF1) mice
Conditions: endpoint: mean survival time, higher = longer survival
Method in brief: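 Each compound was tested against a transplantable tumor grown in mice. The endpoint was survival, with treated animals benchmarked against vehicle controls as a simple ratio.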

[1] = dose: 400.0 mg/kg/injection, schedule: Q01DX001 (ip), vehicle: saline
[2] = dose: 100.0 mg/kg/injection, schedule: Q04DX003 (ip), vehicle: saline
[3] = dose: 200.0 mg/kg/injection, schedule: Q04DX003 (ip), vehicle: saline
[4] = dose: 50.0 mg/kg/injection, schedule: Q01DX001 (ip), vehicle: saline
[5] = dose: 100.0 mg/kg/injection, schedule: Q01DX001 (ip), vehicle: saline
[6] = dose: 100.0 mg/kg/injection, schedule: Q01DX009 (ip), vehicle: saline
[7] = dose: 200.0 mg/kg/injection, schedule: Q01DX001 (ip), vehicle: saline
[8] = dose: 200.0 mg/kg/injection, schedule: Q01DX009 (ip), vehicle: saline
[9] = dose: 400.0 mg/kg/injection, schedule: Q01DX009 (ip), vehicle: saline
[10] = dose: 50.0 mg/kg/injection, schedule: Q04DX003 (ip), vehicle: Klucel (hydroxypropylcellulose) (HPC)
[11] = dose: 100.0 mg/kg/injection, schedule: Q04DX003 (ip), vehicle: Klucel (hydroxypropylcellulose) (HPC)
[12] = dose: 200.0 mg/kg/injection, schedule: Q04DX003 (ip), vehicle: Klucel (hydroxypropylcellulose) (HPC)
[13] = dose: 400.0 mg/kg/injection, schedule: Q04DX003 (ip), vehicle: Klucel (hydroxypropylcellulose) (HPC)
[14] = dose: 100.0 mg/kg/injection, schedule: Q01DX009 (ip), vehicle: Klucel (hydroxypropylcellulose) (HPC)
[15] = dose: 200.0 mg/kg/injection, schedule: Q01DX009 (ip), vehicle: Klucel (hydroxypropylcellulose) (HPC)
[16] = dose: 400.0 mg/kg/injection, schedule: Q01DX009 (ip), vehicle: Klucel (hydroxypropylcellulose) (HPC)
[17] = dose: 50.0 mg/kg/injection, schedule: Q01DX001 (ip), vehicle: carboxymethylcellulose (CMC)
[18] = dose: 100.0 mg/kg/injection, schedule: Q01DX001 (ip), vehicle: carboxymethylcellulose (CMC)
[19] = dose: 200.0 mg/kg/injection, schedule: Q01DX001 (ip), vehicle: carboxymethylcellulose (CMC)
[20] = dose: 400.0 mg/kg/injection, schedule: Q01DX001 (ip), vehicle: carboxymethylcellulose (CMC)
[21] = dose: 100.0 mg/kg/injection, schedule: Q04DX002 (ip), vehicle: saline with Tween-80
[22] = dose: 200.0 mg/kg/injection, schedule: Q04DX002 (ip), vehicle: saline with Tween-80
[23] = dose: 400.0 mg/kg/injection, schedule: Q04DX002 (ip), vehicle: saline with Tween-80
[24] = dose: 100.0 mg/kg/injection, schedule: Q04DX003 (ip), vehicle: saline with Tween-80

In the case of CN=C(NN)NCCO, the T/C (dose: 175.0 mg/kg/injection, schedule: Q01DX001 (ip), vehicle: saline) was 96 % of control, the T/C (dose: 265.0 mg/kg/injection, schedule: Q01DX001 (ip), vehicle: saline) was 96 % of control and the T/C [1] was 110 % of control. The T/C (dose: 600.0 mg/kg/injection, schedule: Q01DX001 (ip), vehicle: saline) was 98 % of control.

With O=c1[nH]nc(/C=C/c2ccccc2)o1 the T/C (dose: 50.0 mg/kg/injection, schedule: Q04DX003 (ip), vehicle: saline) was 103 % of control, the T/C [2] was 95 % of control and the T/C [3] was 97 % of control.

For Cc1nn(C2CC(O)C(O)C(CO)O2)c(=O)[nH]c1=O (stereo unspecified), the T/C [4] was 93 % of control, the T/C [5] was 96 % of control and the T/C [6] was 92 % of control. The T/C [7] was 104 % of control, the T/C [8] was 95 % of control and the T/C [1] was 98 % of control. For the same compound, the T/C [9] was 98 % of control.

S=C(SSSSC(=S)N1CCCCC1)N1CCCCC1 was tested, and the T/C [10] was 97 % of control, the T/C [11] was 101 % of control and the T/C [12] was 92 % of control. The T/C [13] was 92 % of control.

For CC(=O)Nn1cnc2c(=S)nc[nH]c21, the T/C (dose: 20.0 mg/kg/injection, schedule: Q01DX009 (ip), vehicle: saline with Tween-80) was 108 % of control, the T/C (dose: 100.0 mg/kg/injection, schedule: Q01DX001 (ip), vehicle: saline with Tween-80) was 101 % of control and the T/C (dose: 177.0 mg/kg/injection, schedule: Q01DX001 (ip), vehicle: saline with Tween-80) was 106 % of control. For the same compound, the T/C (dose: 200.0 mg/kg/injection, schedule: Q01DX001 (ip), vehicle: saline with Tween-80) was 110 % of control, the T/C (dose: 200.0 mg/kg/injection, schedule: Q01DX009 (ip), vehicle: saline with Tween-80) was 93 % of control and the T/C (dose: 266.0 mg/kg/injection, schedule: Q01DX001 (ip), vehicle: saline with Tween-80) was 154 % of control. For the same compound, the T/C (dose: 400.0 mg/kg/injection, schedule: Q01DX001 (ip), vehicle: saline with Tween-80) was 118 % of control.

In the case of O=[N+]([O-])c1ccc(/C=C/c2ccccc2)cc1, the T/C [14] was 97 % of control, the T/C [11] was 109 % of control and the T/C [15] was 95 % of control. For the same compound, the T/C [12] was 98 % of control, the T/C [16] was 96 % of control and the T/C [13] was 105 % of control.

In the case of COc1cc(C2c3c(cc(OC)c(O)c3OC)C=C(C(=O)O)C2CO)cc(OC)c1O (stereo unspecified), the T/C [17] was 94 % of control, the T/C [18] was 102 % of control and the T/C [19] was 96 % of control. For the same compound, the T/C [20] was 91 % of control.

In the case of CC(=O)C1C=NC(C)(C)C(C)(C)N=CC(C(C)=O)C(C)=NCCCN=C1C.[Ni] (stereo unspecified), the T/C (dose: 12.5 mg/kg/injection, schedule: Q04DX002 (ip), vehicle: saline) was 97 % of control and the T/C (dose: 25.0 mg/kg/injection, schedule: Q04DX002 (ip), vehicle: saline) was 97 % of control.

O=C(NC(=O)C(Cl)Cl)Nc1ccc2c(c1)Cc1ccccc1-2 was tested, and the T/C (dose: 100.0 mg/kg/injection, schedule: Q01DX001 (ip), vehicle: Klucel (hydroxypropylcellulose) (HPC)) was 95 % of control, the T/C [14] was 100 % of control and the T/C [11] was 102 % of control. For the same compound, the T/C (dose: 200.0 mg/kg/injection, schedule: Q01DX001 (ip), vehicle: Klucel (hydroxypropylcellulose) (HPC)) was 100 % of control, the T/C [15] was 98 % of control and the T/C [12] was 96 % of control. For the same compound, the T/C (dose: 400.0 mg/kg/injection, schedule: Q01DX001 (ip), vehicle: Klucel (hydroxypropylcellulose) (HPC)) was 100 % of control, the T/C [16] was 104 % of control and the T/C [13] was 96 % of control.

For CNC(=O)Nc1cccc(C(F)(F)F)c1, the T/C [14] was 103 % of control, the T/C [11] was 102 % of control and the T/C [15] was 100 % of control. The T/C [12] was 102 % of control and the T/C [13] was 123 % of control.

With Cc1c2ccccc2c2ccccc2[n+]1[O-] the T/C [21] was 97 % of control and the T/C [22] was 101 % of control.

CCOC(=O)c1ccc(N=Nc2ccc([N+](=O)[O-])cc2)cc1 was tested, and the T/C [21] was 105 % of control, the T/C [22] was 105 % of control and the T/C [23] was 112 % of control.

With Cn1c2ccccc2c(=O)c2c(O)cc3c(c21)C=CC(C)(C)O3 the T/C [17] was 98 % of control, the T/C [18] was 90 % of control and the T/C [19] was 88 % of control. For the same compound, the T/C [20] was 88 % of control.

O=C1CCSC(=S)N1c1cccc(C(F)(F)F)c1 was tested, and the T/C (dose: 25.0 mg/kg/injection, schedule: Q04DX003 (ip), vehicle: saline with Tween-80) was 101 % of control, the T/C (dose: 50.0 mg/kg/injection, schedule: Q04DX003 (ip), vehicle: saline with Tween-80) was 104 % of control and the T/C [24] was 104 % of control.

For N#CC(C#N)=C(C#N)c1cccn1Cc1ccccc1, the T/C (dose: 87.5 mg/kg/injection, schedule: Q01DX009 (ip), vehicle: carboxymethylcellulose (CMC)) was 96 % of control, the T/C (dose: 175.0 mg/kg/injection, schedule: Q01DX009 (ip), vehicle: carboxymethylcellulose (CMC)) was 95 % of control and the T/C (dose: 350.0 mg/kg/injection, schedule: Q01DX009 (ip), vehicle: carboxymethylcellulose (CMC)) was 90 % of control.

With O=c1nccc(Nc2ccccc2)[nH]1 the T/C (dose: 25.0 mg/kg/injection, schedule: Q01DX009 (ip), vehicle: Klucel (hydroxypropylcellulose) (HPC)) was 98 % of control, the T/C (dose: 50.0 mg/kg/injection, schedule: Q01DX009 (ip), vehicle: Klucel (hydroxypropylcellulose) (HPC)) was 93 % of control and the T/C [14] was 98 % of control.

In the case of CN(C)S(=O)(=O)c1ccc(NC(=O)OC2CCCCC2)cc1, the T/C [5] was 96 % of control, the T/C [7] was 91 % of control and the T/C [1] was 96 % of control.

In the case of Clc1ccc(-c2coc3cccc[n+]23)cc1, the T/C (dose: 75.0 mg/kg/injection, schedule: Q01DX001 (ip), vehicle: other) was 100 % of control, the T/C (dose: 150.0 mg/kg/injection, schedule: Q01DX001 (ip), vehicle: other) was 97 % of control and the T/C (dose: 300.0 mg/kg/injection, schedule: Q01DX001 (ip), vehicle: other) was 97 % of control.

With O=P(CCCl)(OCCCl)OCCCl the T/C [24] was 94 % of control, the T/C (dose: 200.0 mg/kg/injection, schedule: Q04DX003 (ip), vehicle: saline with Tween-80) was 109 % of control and the T/C (dose: 400.0 mg/kg/injection, schedule: Q04DX003 (ip), vehicle: saline with Tween-80) was 109 % of control.

For Cc1c(O)c2ccccc2[nH]c1=O, the T/C [21] was 97 % of control, the T/C [22] was 103 % of control and the T/C [23] was 106 % of control.

With O=C1C(c2c[nH]c3ccc(Br)cc23)=Nc2ccc(Br)cc21 the T/C [5] was 102 % of control, the T/C [7] was 100 % of control and the T/C [1] was 105 % of control.

For C[N+]1(C)OCC2CCCC(c3ccccc3)C21 (stereo unspecified), the T/C (dose: 12.5 mg/kg/injection, schedule: Q01DX001 (ip), vehicle: saline) was 104 % of control, the T/C (dose: 25.0 mg/kg/injection, schedule: Q01DX001 (ip), vehicle: saline) was 102 % of control and the T/C [4] was 98 % of control.

COc1ccccc1[N+](C)(C)C was tested, and the T/C [5] was 102 % of control.

For COC(=O)c1ccc2cc(C(=O)OC)ccc2c1, the T/C [10] was 105 % of control, the T/C [11] was 105 % of control and the T/C [12] was 101 % of control.

In the case of O=c1cc2oc3c(O)c(O)ccc3c3c4ccccc4c(=O)c(c1)c23, the T/C (dose: 12.5 mg/kg/injection, schedule: Q01DX009 (ip), vehicle: saline) was 92 % of control, the T/C (dose: 25.0 mg/kg/injection, schedule: Q01DX009 (ip), vehicle: saline) was 96 % of control and the T/C (dose: 50.0 mg/kg/injection, schedule: Q01DX009 (ip), vehicle: saline) was 103 % of control and 91 % of control. For the same compound, the T/C [2] was 96 % of control and the T/C [3] was 102 % of control.

With Cc1c(Cl)c(C)c(Cl)c(Cl)c1Cl the T/C [5] was 106 % of control, the T/C [6] was 101 % of control and the T/C [2] was 89 % of control. The T/C [7] was 98 % of control, the T/C [8] was 108 % of control and the T/C [3] was 87 % of control. The T/C [1] was 96 % of control, the T/C [9] was 94 % of control and the T/C (dose: 400.0 mg/kg/injection, schedule: Q04DX003 (ip), vehicle: saline) was 94 % of control.

With CC1(C)N=C(N)N=C(N)N1c1cccc(OCCCOc2ccc([N+](=O)[O-])cc2)c1 the T/C [5] was 91 % of control.

— PubChem BioAssay AID248 (DTP/NCI, 2004)
